Test results taken from BindingDB's records for patent USRE47493 (Boehringer Ingelheim International, 2019).

Biological target: T1, Neutrophil elastase (Homo sapiens, UniProt P08246)
T1 sequence (P08246 whole entry): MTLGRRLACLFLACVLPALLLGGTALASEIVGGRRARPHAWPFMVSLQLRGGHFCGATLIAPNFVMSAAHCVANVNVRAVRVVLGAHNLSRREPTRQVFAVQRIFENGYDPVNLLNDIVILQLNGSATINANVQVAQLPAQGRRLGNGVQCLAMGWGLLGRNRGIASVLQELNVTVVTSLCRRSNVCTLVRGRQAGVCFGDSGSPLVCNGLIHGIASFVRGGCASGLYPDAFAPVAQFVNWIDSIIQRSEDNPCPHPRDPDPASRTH
Experiment: Enzyme Inhibition Assay
Protocol: All other materials were of the highest grade commercially available.The following buffers were used: Compound buffer: 100 mM Tris, 500 mM NaCl, adjusted to pH 7.5; Assay buffer: 100 mM Tris, 500 mM NaCl, adjusted to pH 7.5, containing 0.01% BSA.Assay conditions: Test compounds were prediluted in DMSO and subsequently in compound buffer (5% DMSO final). […] After inactivation of the enzyme, fluorescence intensities were measured at 380 nm excitation and 460 nm emission wavelengths.

`N#Cc1ccc(C2C3=C(CCCC3=O)N(c3cccc(C(F)(F)F)c3)C(=O)N2C(=O)NC2CCC[C@@H]2O)cc1` (some centres not stated) [USRE47493, Example 70.12] was tested, and the IC50 was < 1 nM.

With `N#Cc1ccc(C2C3=C(CCCC3=O)N(c3cccc(C(F)(F)F)c3)C(=O)N2C(=O)NC2CCCC[C@@H]2O)cc1` (some centres not stated) [USRE47493, Example 70.17] the IC50 was 1.1 nM.
